{"source": "patent US9078910B2", "about": "“Compositions comprising spicamycin derivatives and methods of use thereof” (DARA BioSciences, Inc., priority 2012, dated 2015)", "origin": "cited, not measured here", "test_system": "neuropathic pain", "conditions": "Abdi et al. 2000, Kobierski et al. 2003"}
{"smiles": "CCCCCCCCC/C=C/C=C/C(=O)NCC(=O)N[C@@H]1[C@@H](O)[C@@H](O)[C@@H](Nc2ncnc3[nH]cnc23)O[C@H]1[C@@H](O)CO", "note": "[KRN5500, 6-[4-deoxy-4-[(2E,4E)-tetradecadienoylglycyl]amino-L-glycero-β-L-mannoheptopyranosyl]amino-9H-purine]", "values": [{"measurement": "Efficacy in rat models of neuropathic pain", "value": "effective"}]}
